Test results: ChEMBL document CHEMBL3120118, “Evaluation of 1,2,5-thiadiazoles as modulators of M₁/M₅ muscarinic receptor subtypes” (Bioorg Med Chem, 2014)
Calls of active or inactive are those of the source. No cut-off for these calls is given here.

Assays:
[1] = biological target: T1, Muscarinic acetylcholine receptor M5 (Homo sapiens) (UniProt P08912); experiment: Modulation of human muscarinic M5 receptor expressed in mouse A9 L cells assessed as effect on carbachol-induced phosphoinositide metabolism at 1 to 100 uM after 1 hr by topcount analysis; format: cell-based; conditions: A9L
T1 sequence (whole entry): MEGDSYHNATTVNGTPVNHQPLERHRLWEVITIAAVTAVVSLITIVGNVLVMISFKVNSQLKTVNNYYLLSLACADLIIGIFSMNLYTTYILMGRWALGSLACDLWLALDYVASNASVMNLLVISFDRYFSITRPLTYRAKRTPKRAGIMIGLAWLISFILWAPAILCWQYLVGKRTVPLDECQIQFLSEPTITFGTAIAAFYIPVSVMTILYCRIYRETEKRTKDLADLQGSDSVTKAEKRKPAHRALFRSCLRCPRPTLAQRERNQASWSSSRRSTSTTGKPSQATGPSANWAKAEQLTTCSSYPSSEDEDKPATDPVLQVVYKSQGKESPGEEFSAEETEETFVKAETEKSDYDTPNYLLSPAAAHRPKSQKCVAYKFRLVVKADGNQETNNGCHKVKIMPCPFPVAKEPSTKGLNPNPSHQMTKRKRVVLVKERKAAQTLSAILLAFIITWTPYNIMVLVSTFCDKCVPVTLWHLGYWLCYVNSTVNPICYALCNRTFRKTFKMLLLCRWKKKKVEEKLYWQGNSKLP

[2] = biological target: T2, Muscarinic acetylcholine receptor M1 (Homo sapiens) (UniProt P11229); experiment: Modulation of human muscarinic M1 receptor expressed in mouse A9 L cells assessed as effect on carbachol-induced phosphoinositide metabolism at 1 to 100 uM after 1 hr by topcount analysis; format: cell-based; conditions: A9L
T2 sequence (whole entry): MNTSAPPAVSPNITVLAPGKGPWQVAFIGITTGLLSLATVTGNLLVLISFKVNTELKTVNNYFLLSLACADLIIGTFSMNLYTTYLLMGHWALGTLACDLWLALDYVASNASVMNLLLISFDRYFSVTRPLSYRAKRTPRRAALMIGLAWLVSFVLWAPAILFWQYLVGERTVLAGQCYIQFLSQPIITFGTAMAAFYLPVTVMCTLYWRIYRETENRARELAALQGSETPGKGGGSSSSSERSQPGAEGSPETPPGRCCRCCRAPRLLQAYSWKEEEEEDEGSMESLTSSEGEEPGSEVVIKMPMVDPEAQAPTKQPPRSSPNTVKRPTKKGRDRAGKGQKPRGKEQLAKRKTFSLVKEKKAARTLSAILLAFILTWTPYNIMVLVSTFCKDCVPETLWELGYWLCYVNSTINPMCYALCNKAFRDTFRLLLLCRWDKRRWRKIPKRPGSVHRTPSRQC

[3] = biological target: T2, Muscarinic acetylcholine receptor M1 (Homo sapiens); experiment: Stimulation of human muscarinic M1 receptor expressed in mouse A9 L cells at 1 to 100 uM after 1 hr by topcount analysis; format: cell-based; conditions: A9L
[4] = biological target: T1, Muscarinic acetylcholine receptor M5 (Homo sapiens); experiment: Stimulation of human muscarinic M5 receptor expressed in mouse A9 L cells at 1 to 100 uM after 1 hr by topcount analysis; format: cell-based; conditions: A9L
[5] = Solubility of the compound in 50% DMSO; format: physicochemical
[6] = biological target: T1, Muscarinic acetylcholine receptor M5 (Homo sapiens); experiment: Modulation of human muscarinic M5 receptor expressed in mouse A9 L cells assessed as competitive inhibition of carbachol-induced phosphoinositide metabolism by Schild plot analysis; format: cell-based; conditions: A9L
[7] = biological target: T2, Muscarinic acetylcholine receptor M1 (Homo sapiens); experiment: Modulation of human muscarinic M1 receptor expressed in mouse A9 L cells assessed as effect on carbachol-induced phosphoinositide metabolism at 10 to 300 uM by Schild plot analysis; format: cell-based; conditions: A9L
[8] = biological target: T2, Muscarinic acetylcholine receptor M1 (Homo sapiens); experiment: Modulation of human muscarinic M1 receptor expressed in mouse A9 L cells assessed as effect on carbachol-induced phosphoinositide metabolism at 1 uM by Schild plot analysis; format: cell-based; conditions: A9L
[9] = biological target: T1, Muscarinic acetylcholine receptor M5 (Homo sapiens); experiment: Modulation of human muscarinic M5 receptor expressed in mouse A9 L cells assessed as inhibition of carbachol-induced phosphoinositide metabolism at 1 to 100 uM after 1 hr by topcount analysis; format: cell-based; conditions: A9L
[10] = biological target: T1, Muscarinic acetylcholine receptor M5 (Homo sapiens); experiment: Modulation of human muscarinic M5 receptor expressed in mouse A9 L cells assessed as inhibition of carbachol-induced phosphoinositide metabolism at 100 uM after 1 hr by topcount analysis; format: cell-based; conditions: A9L
[11] = biological target: T2, Muscarinic acetylcholine receptor M1 (Homo sapiens); experiment: Modulation of human muscarinic M1 receptor expressed in mouse A9 L cells assessed as inhibition of carbachol-induced phosphoinositide metabolism at 100 uM after 1 hr by topcount analysis; format: cell-based; conditions: A9L

SMILES | Activity [1] | Activity [2] | Activity [3] | Activity [4] | solubility [5] | also measured
COc1nsnc1OCCN(C)C |  | inactive | inactive | inactive |  | inhibition [6]: Dose-dependent effect; Activity [7]: Active; Activity [8]: inactive; inhibition [9]: Active
COc1nsnc1OCCO | inactive | inactive | inactive | inactive |  | 
COc1nsnc1OCC[N+](C)(C)C |  |  | inactive | inactive |  | inhibition [10]: Active; inhibition [11]: Active

Now from value to compound, other results behind:

Activity [1] | Activity [2] | Activity [3] | Activity [4] | solubility [5] | SMILES | also measured
inactive | inactive | inactive | inactive |  | COc1nsnc1OCCOCCOCCOCCO | 
 |  |  |  | Insoluble | COc1nsnc1OCCOCCOCCOc1nsnc1OC | 
 |  |  |  | Insoluble | COc1nsnc1OCCOCCOCCOCCOc1nsnc1OC | 
 |  |  |  | Insoluble | COc1nsnc1OCCOCCOCc1ccccc1 | 
inactive | inactive | inactive | inactive |  | COc1nsnc1OCCOCCOCCO | 
